Assays:
Assay in all cases: relative viability (nuclei count vs DMSO), 5 days (fraction); higher = more cells survive
AZ505 + Tozasertib = compound: C1CCC(CC1)N(CCNCCC2=C3C(=C(C=C2)O)NC(=O)CO3)C(=O)CCNCCC4=CC(=C(C=C4)Cl)Cl [AZ505] + Cc1cc(Nc2cc(N3CCN(C)CC3)nc(Sc3ccc(NC(=O)C4CC4)cc3)n2)n[nH]1 [Tozasertib] (partner 0.1 µM)
Outline: (§1)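 For relative viability, nuclei counts in treated wells were divided by those in vehicle wells. Lung cancer cell lines had been pin-tool dosed in 1536-well plates the day after seeding and cultured for 5 days, then fixed and stained in one step (final 0.05% Triton X-100, 1% formaldehyde, 1 ug/ml Hoechst) and imaged at 4×. Doses were one drug alone or a fixed anchor-drug dose plus five library-drug doses (not always all listed) in √10 steps, and values are duplicate-plate medians.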

Dactolisib + Bortezomib = compound: Cn1c(=O)n(-c2ccc(C(C)(C)C#N)cc2)c2c3cc(-c4cnc5ccccc5c4)ccc3ncc21 [Dactolisib] + CC(C)C[C@H](NC(=O)[C@H](Cc1ccccc1)NC(=O)c1cnccn1)B(O)O [Bortezomib] (partner 0.002 µM)
Outline: as §1

AZ505 + Phenformin = compound: C1CCC(CC1)N(CCNCCC2=C3C(=C(C=C2)O)NC(=O)CO3)C(=O)CCNCCC4=CC(=C(C=C4)Cl)Cl [AZ505] + N=C(N)NC(=N)NCCc1ccccc1 [Phenformin] (partner 250 µM)
Outline: as §1

Dactolisib + Lapatinib = compound: Cn1c(=O)n(-c2ccc(C(C)(C)C#N)cc2)c2c3cc(-c4cnc5ccccc5c4)ccc3ncc21 [Dactolisib] + CS(=O)(=O)CCNCc1ccc(-c2ccc3ncnc(Nc4ccc(OCc5cccc(F)c5)c(Cl)c4)c3c2)o1 [Lapatinib] (partner 2 µM)
Outline: as §1

| Cell Line | relative viability (AZ505 + Tozasertib; first compound 0.08 µM) | relative viability (AZ505 + Tozasertib; first compound 0.253 µM) | relative viability (AZ505 + Tozasertib; first compound 0.8 µM) | relative viability (AZ505 + Tozasertib; first compound 2.53 µM) | relative viability (AZ505 + Tozasertib; first compound 8 µM) | relative viability (Dactolisib + Bortezomib; first compound 0.002 µM) | relative viability (Dactolisib + Bortezomib; first compound 0.006325 µM) | relative viability (Dactolisib + Bortezomib; first compound 0.02 µM) | relative viability (Dactolisib + Bortezomib; first compound 0.06325 µM) | relative viability (Dactolisib + Bortezomib; first compound 0.2 µM) | relative viability (AZ505 + Phenformin; first compound 0.08 µM) | relative viability (AZ505 + Phenformin; first compound 0.253 µM) | relative viability (AZ505 + Phenformin; first compound 0.8 µM) | relative viability (AZ505 + Phenformin; first compound 2.53 µM) | relative viability (AZ505 + Phenformin; first compound 8 µM) | relative viability (Dactolisib + Lapatinib; first compound 0.002 µM) | relative viability (Dactolisib + Lapatinib; first compound 0.006325 µM) | relative viability (Dactolisib + Lapatinib; first compound 0.02 µM) | relative viability (Dactolisib + Lapatinib; first compound 0.06325 µM) | relative viability (Dactolisib + Lapatinib; first compound 0.2 µM) |
| --- | --- | --- | --- | --- | --- | --- | --- | --- | --- | --- | --- | --- | --- | --- | --- | --- | --- | --- | --- | --- |
| 201T | 0.896 | 1.08 | 0.905 | 0.943 | 0.875 | 1.05 | 1.08 | 1.08 | 1.07 | 0.856 | 0.446 | 0.445 | 0.501 | 0.468 | 0.477 | 1.07 | 1.05 | 0.991 | 0.956 | 0.969 |
| A549 |  |  |  |  |  |  |  |  |  |  | 0.15 | 0.19 | 0.145 | 0.113 | 0.166 | 1.07 | 0.769 | 0.674 | 0.224 | 0.145 |
| A-427 | 0.211 | 0.177 | 0.194 | 0.187 | 0.216 | 0.947 | 0.959 | 0.966 | 0.61 | 0.581 | 0.309 | 0.255 | 0.327 | 0.395 | 0.298 | 1.06 | 1.04 | 0.928 | 0.883 | 0.776 |
| ABC-1 | 0.116 | 0.185 | 0.168 | 0.168 | 0.167 | 0.345 | 0.296 | 0.303 | 0.312 | 0.247 | 0.196 | 0.211 | 0.242 | 0.252 | 0.219 | 1.18 | 1.04 | 0.982 | 0.808 | 0.707 |
| BEN | 0.443 | 0.545 | 0.458 | 0.504 | 0.426 | 0.766 | 0.795 | 0.809 | 0.598 | 0.289 | 0.24 | 0.239 | 0.293 | 0.262 | 0.286 | 0.882 | 0.624 | 0.657 | 0.408 | 0.274 |
| CAL-12T | 0.298 | 0.426 | 0.308 | 0.303 | 0.302 | 1.05 | 1.13 | 0.825 | 0.721 | 0.338 | 0.473 | 0.531 | 0.553 | 0.525 | 0.649 | 0.792 | 0.567 | 0.537 | 0.366 | 0.258 |
| COR-L23 | 0.181 | 0.177 | 0.22 | 0.179 | 0.146 | 1.21 | 0.803 | 0.765 | 0.327 | 0.149 | 0.446 | 0.463 | 0.383 | 0.442 | 0.441 | 1.39 | 0.864 | 0.765 | 0.299 | 0.295 |
| COR-L 105 | 0.354 | 0.34 | 0.341 | 0.335 | 0.403 | 0.784 | 0.888 | 0.553 | 0.28 | 0.274 | 0.451 | 0.454 | 0.547 | 0.473 | 0.583 | 0.311 | 0.355 | 0.363 | 0.267 | 0.35 |
| Calu-6 |  |  |  |  |  | 1.08 | 1.07 | 1.06 | 0.593 | 0.387 |  |  |  |  |  | 1.18 | 1.08 | 0.98 | 0.645 | 0.531 |
| ChaGo-K-1 | 0.2 | 0.232 | 0.244 | 0.216 | 0.238 | 0.977 | 1.07 | 0.861 | 1.04 | 0.755 | 0.486 | 0.521 | 0.5 | 0.514 | 0.458 |  |  |  |  |  |
| EBC-1 |  |  |  |  |  | 0.625 | 0.523 | 0.373 | 0.216 | 0.191 |  |  |  |  |  | 0.237 | 0.203 | 0.241 | 0.19 | 0.182 |
| EKVX | 0.372 | 0.354 | 0.435 | 0.38 | 0.378 | 1.09 | 0.997 | 1.02 | 0.941 | 0.396 | 0.21 | 0.245 | 0.238 | 0.198 | 0.251 | 0.242 | 0.189 | 0.212 | 0.164 | 0.129 |
| EMC-BAC-2 | 0.268 | 0.323 | 0.299 | 0.274 | 0.275 | 1.11 | 1.06 | 1.09 | 0.859 | 0.63 | 0.497 | 0.593 | 0.496 | 0.508 | 0.487 | 0.921 | 0.856 | 0.889 | 0.703 | 0.604 |
| EPLC-272H |  | 0.392 | 0.282 | 0.316 | 0.25 | 0.899 | 0.903 | 0.721 | 0.693 | 0.496 |  | 0.283 | 0.304 | 0.241 | 0.324 | 0.879 | 0.728 | 0.664 | 0.687 | 0.4 |
| H3255 | 0.639 | 1.17 | 0.564 | 0.503 | 0.577 | 0.798 | 0.693 | 0.766 | 0.664 | 0.39 | 0.303 | 0.377 | 0.379 | 0.321 | 0.38 | 0.329 | 0.257 | 0.226 | 0.237 | 0.225 |

From the supplement of paper PMC10307832
